This note sets out measurements from patent publication US5028605A, “8-alkylaminoimidazo(1,2-a)pyrazines and derivatives, their preparation and their application in therapy” (l'Universite de Montpellier I, priority 1986, dated 1991).

One experiment deals with guinea pig trachea. Description: Isolated guinea pig trachea: anti-contractional activity against carbachol. As to conditions: for EC50 Theo/EC50 product (anti-contractional activity, trachea): carbachol 10^-4 M, isolated guinea pig trachea, mean of 5 to 6 determinations. How it is done: Guinea pigs of both sexes weighing on average 400 to 600 g are sacrificed, and the tracheas are removed and placed at 37° C. in an oxygenated environment (95% O2 -5% CO2) in Krebs fluid of the following composition (mM): NaCl (116), MgSO4 (1.2), KCl (3.7), CaCl2 (2.6), KH2 PO4 (2.2), NaHCO3 (24.9), glucose (10). The tracheal segments are then mounted horizontally between two hooks, one of which is fixed to the base of the isolated organ cell and the other is attached to a myograph under a tension of 0.5 g. The organ is left at rest for one hour and is subjected to four washes. The contraction-inducing reagent (carbachol) is added at a concentration (10^-4 M) greater than the concentration giving the maximum effect. After stabilization of the contractional effect, gradually increasing accumulative amounts of the test products are added to the cell. The bronchodilatory effect is measured as the percentage inhibition of the maximal contraction and EC50 represents the concentration inhibiting this concentration by 50%.

For a further experiment, the system named is uterine horns. The experiment can be described thus: Uterine relaxant activity: spontaneous contractions of isolated rat uterine horn fragments. As to conditions: for ED50 Theo/ED50 product (uterine relaxant activity): isolated rat uterine horn, spontaneous contractions, mean of 5 to 10 determinations. How it is done:
Female rats (150-180 g) are killed by decapitation 24 hours after the intraperitoneal administration of stilbestrol (0.1 mg/kg). The uterine horns are removed and fragments mounted in a thermostatted (37° C.) isolated organ cell and maintained in survival in oxygenated De Jalon's solution of composition (mM): NaCl (153.8); KCl (5.6); CaCl2 (2.16); NaHCO3 (1.8); dextrose (5.5). One end of the uterine fragment is maintained fixed, while the other is attached to a recording myograph under a tension of the order of 0.5 g. The spontaneous uterine contractions are recorded on a kymograph. The organ is left at rest for 30 minutes and washed three times. The test products are introduced directly into the bath after being dissolved in De Jalon's solution, and the activity measured (ED50) corresponds to the dose capable of reducing the magnitude of the spontaneous contractions by 50%.
The results expressed in Table V below show the ratio ED50 Theo/ED50 product, established on the basis of the mean of the results of 5 to 10 determinations per product. (ED50 theophylline=0.9×10^-3 M)

A further experiment has as its system right atrium. The experiment can be described thus: Cardiac activity: chronotropic function, isolated spontaneously beating right atrium. As to conditions: concentration producing 20% increase in rate. Further details: species or system guinea pig. The text has this:
(§1) Guinea pigs of both sexes weighing between 300 and 500 g are killed by decapitation. The hearts are rapidly removed and placed in an oxygenated environment (95% O2 -5% CO2) in Chenoweth-Koelle's solution of the following composition (mM): NaCl (120), KCl (5.63), CaCl2 (2.0), dextrose (9.7), MgCl2 (2.0), NaHCO3 (26.0). The right and left atria are then separated from the heart and mounted in an isolated organ cell. The right atrium beats spontaneously and the left atrium is electrically stimulated. The organs under a tension of 1 g are left at rest for two hours and washed every fifteen minutes.
(§2) The products are added directly to the nutrient bath. The right atrium is used for measuring the modifications of rate (chronotropic function) whereas the left atrium indicates the modifications brought about in the contractile force (inotropic function).
For the chronotropic function, the concentration capable of producing a 20% increase in the basic value of the rate is determined.

The subject of experiment [1] is histamine-induced bronchoconstriction, guinea pigs. The experiment can be described thus: Antibronchospastic activity: histamine-induced bronchospasm in anesthetized guinea pigs. The class given is in vivo, guinea pig. As to conditions: for ED50 Theo/ED50 product (bronchospasm induced in guinea pigs): intravenous, 30 seconds before histamine, mean of 5 to 8 determinations. How it is done: Guinea pigs of both sexes weighing between 400 and 600 g are anesthetized with ethyl carbamate ([…] i.p.). After tracheotomy, the animal is placed under artificial respiration at a constant flowrate (Palmer pump 1 m1/100 g×60/min). A take-off at the tracheal cannula enables the volume of air to be gaged at each inhalation by means of a Marey drum. Bronchospasm is induced by intraveneous (jugular) administration of histamine. For each animal, the dose of histamine (8 to 12 μg/kg) inducing an increase in the recording trace equal to double its initial value is determined. The dose adopted should provide three identical responses at intervals of 10 minutes.
The test product is administered intraveneously and then, 30 seconds later, histamine is administered again.

The test system of the next experiment is duodenum. Description: Antispasmodic activity: barium chloride-induced contraction of isolated rat duodenum (Magnus). As to conditions: for ED50 Theo/ED50 product (antispasmodic activity): barium chloride 10^-4 M, isolated rat duodenum, 37° C., mean of 5 to 6 determinations. As for the experimental part:
Fragments of duodenum are removed from male rats (200 g), fasted for 24 hours and killed by decapitation, and are mounted, after being washed, in a thermostatted (37° C.) isolated organ cell and maintained in survival in Tyrode's solution according to Magnus's classical technique.
The spasmogenic agent used is barium chloride (10^-4 M).
In the first instance, the spasmogenic agent is added to the nutrient bath and, as soon as the contraction of the organ reaches its maximum, the relaxant agent is added to the medium. Working in relation to a fixed concentration of barium chloride with variable concentrations of relaxant, the ED50 of the latter, capable of reducing the induced contraction by 50%, is determined.
The results expressed in Table IV below show the ratio ED50 Theo/ED50 product, established on the basis of the mean of the results of 5 to 6 determinations per product (ED50theophylline=8×10^-4 M).

The next experiment has as its system mice. The experiment can be described thus: Motor activity: spontaneous activity in mice (neurosedative effect). The class given is in vivo, mouse. As to conditions: male mice, 50 minutes. As for the experimental part: The measurement of the neurosedative effect is based on the test of activity measurements in mice. […] Five minutes after the administration, the animals are placed in activity-measuring cages, which record their movements digitally by means of the interruption of beams of light. The results are recorded in Table IX and expressed as the percentage variation (increase or decrease ) in activity compared with the controls during a period of 50 minutes following the administration.

The subject of the next experiment is left atrium. Description: Cardiac activity: inotropic function, isolated electrically stimulated left atrium. Further details: species or system guinea pig. As to conditions: concentration producing increase in magnitude of 0.5 g.
Excerpt: as §1, §2
For the inotropic function, the concentration capable of producing an increase in magnitude of 0.5 g with respect to the basic contraction is measured.

One may read the ED50 as the dose that gives a 50% effect, or the effect in half of the subjects.

Consider `CNc1nccn2c(Br)cnc12` [Compound 6, 3-Bromo-8-methylaminoimidazo[1,2-a]pyrazine], for which, in the experiment on guinea pig trachea, the “EC50 Theo/EC50 product (anti-contractional activity, trachea)” value (shortened to “EC50 Theo/EC50 product”) is reported as 12.5. Also, the “ED50 Theo/ED50 product (uterine relaxant activity)” value with uterine horns is on record as 9. Besides, the “ED Theo/ED Product, chronotropic function” value in the experiment with right atrium was found to be 6. The “ED50 Theo/ED50 product (bronchospasm induced in guinea pigs)” value in experiment [1] is 2. Besides, the “ED50 Theo/ED50 product (antispasmodic activity)” value in the experiment on duodenum is 32. Besides, the “spontaneous activity - % variation compared with the controls, decrease (.dwnarw.)” value with mice (55 μmol/kg intraperitoneally) came out at 25%; in the experiment on mice (166 μmol/kg intraperitoneally), 57%. The “ED Theo/ED Product, inotropic function” value in the experiment on left atrium was 5.

With `Nc1nc(Br)cn2ccnc12` [Compound 8, 8-amino-6-bromoimidazo[1,2-a]pyrazine], the “EC50 Theo/EC50 product” value in the experiment on guinea pig trachea came out at 11.3. Besides, the “ED50 Theo/ED50 product (uterine relaxant activity)” value in the experiment on uterine horns worked out at 3. Also, in the experiment with right atrium, the “ED Theo/ED Product, chronotropic function” value was found to be 2. Besides, the “ED50 Theo/ED50 product (bronchospasm induced in guinea pigs)” value in experiment [1] is 4. In addition, in the experiment on duodenum, the “ED50 Theo/ED50 product (antispasmodic activity)” value is listed as 32. Moreover, the entries for the “spontaneous activity - % variation compared with the controls, decrease (.dwnarw.)” value in the experiment with mice (55 μmol/kg intraperitoneally) and in the experiment with mice (166 μmol/kg intraperitoneally) were 53% and 83%, respectively. Moreover, the “ED Theo/ED Product, inotropic function” value in the experiment with left atrium was 10.

As to `CNc1nc(Br)cn2ccnc12` [Compound 9, 6-bromo-8-methylaminoimidazo[1,2-a]pyrazine], in the experiment on guinea pig trachea, the “EC50 Theo/EC50 product” value stood at 8.3. Also, the “ED50 Theo/ED50 product (uterine relaxant activity)” value in the experiment on uterine horns is 5.6. Besides, the “ED Theo/ED Product, chronotropic function” value in the experiment on right atrium came to 25. The “ED50 Theo/ED50 product (bronchospasm induced in guinea pigs)” value in experiment [1] came to 5.4. The “ED50 Theo/ED50 product (antispasmodic activity)” value with duodenum is on record as 20. The figures for the “spontaneous activity - % variation compared with the controls, decrease (.dwnarw.)” value with mice (55 μmol/kg intraperitoneally) and with mice (166 μmol/kg intraperitoneally) were 74% and 83%, respectively. Further, in the experiment with left atrium, the “ED Theo/ED Product, inotropic function” value amounted to 50.

Turning to `CCNc1nc(Br)cn2ccnc12` [Compound 10, 6-bromo-8-ethylaminoimidazo[1,2-a]pyrazine], the “EC50 Theo/EC50 product” value in the experiment on guinea pig trachea was found to be 5. In the experiment with uterine horns, the “ED50 Theo/ED50 product (uterine relaxant activity)” value was 7.2. In addition, the “ED Theo/ED Product, chronotropic function” value in the experiment with right atrium is given as 15. Also, the “ED50 Theo/ED50 product (bronchospasm induced in guinea pigs)” value in experiment [1] is listed as 2. Besides, the “ED50 Theo/ED50 product (antispasmodic activity)” value in the experiment with duodenum is given as 40. Also, the “spontaneous activity - % variation compared with the controls, decrease (.dwnarw.)” value in the experiment on mice (55 μmol/kg intraperitoneally) came to 13%; with mice (166 μmol/kg intraperitoneally), 73%. Besides, the “ED Theo/ED Product, inotropic function” value in the experiment on left atrium is 4.

Turning to `CCOC(=O)c1cn2ccnc(N)c2n1` [Compound 17, ethyl 8-aminoimidazo[1,2-a]pyrazine-2-carboxylate], the “ED50 Theo/ED50 product (uterine relaxant activity)” value in the experiment with uterine horns was determined as 2.6. The “ED Theo/ED Product, chronotropic function” value with right atrium is on record as below 1. In addition, the “ED50 Theo/ED50 product (bronchospasm induced in guinea pigs)” value in experiment [1] stood at 1.1. In the experiment on duodenum, the “ED50 Theo/ED50 product (antispasmodic activity)” value is listed as 13. In the experiment on mice (55 μmol/kg intraperitoneally), the “spontaneous activity - % variation compared with the controls, increase (.uparw.)” value came to 28%. For the same molecule, the “spontaneous activity - % variation compared with the controls, decrease (.dwnarw.)” value with mice (166 μmol/kg intraperitoneally) was 17%. Besides, the “ED Theo/ED Product, inotropic function” value in the experiment with left atrium is recorded as below 1.

As to `Cn1c(=O)c2[nH]cnc2n(C)c1=O` [theophylline, reference compound], the EC50 in the experiment on guinea pig trachea (Cavia porcellus, 50% inhibition of maximal carbachol contraction, read-out: EC50 Theo (anti-contractional activity, trachea)) is 1000 µM; in the experiment on uterine horns (Rattus norvegicus, reduces magnitude of spontaneous contractions by 50%, read-out: ED50 theophylline (uterine relaxant)), 900 µM; with duodenum (Rattus norvegicus, reduces barium chloride-induced contraction by 50%, read-out: ED50 theophylline (antispasmodic)), 800 µM. Further, the ED50 in experiment [1] (Cavia porcellus, iv, read-out: ED50 Theo (bronchospasm induced in guinea pigs)) came out at 43 µmol/kg. In addition, the “spontaneous activity - % variation compared with the controls, increase (.uparw.)” value was determined as 130% in the experiment with mice (55 μmol/kg intraperitoneally) and 170% in the experiment with mice (166 μmol/kg intraperitoneally).
